Reference: PubChem BioAssay (NCI)
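Interpolation was linear, between the two tested concentrations surrounding the appropriate level; five concentrations were tested over 48 hours in 96-well plates. Abbreviation: GI50, concentration required for 50% inhibition of growth. TGI marks complete inhibition of growth.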

Experiments:
Assay in all cases: NCI tumour cell line growth inhibition, 48 h
[1] = test system: ACHN renal
[2] = test system: HOP-92 NSCLC
[3] = test system: LOX IMVI melanoma
[4] = test system: MALME-3M melanoma
[5] = test system: SF-539 CNS
[6] = test system: SK-MEL-2 melanoma
[7] = test system: SK-OV-3 ovarian
[8] = test system: SW-620 colon
[9] = test system: UACC-62 melanoma
[10] = test system: UO-31 renal

In the case of `CNc1ccc(N=Nc2cccc3ncccc23)cc1`, the GI50 [1] is reported as 20.8 µM, the TGI [1] is reported as > 100 µM and the GI50 [2] is reported as 24.3 µM. The TGI [2] was > 100 µM, the GI50 [3] was 22.3 µM and the TGI [3] was > 100 µM. For the same molecule, the GI50 [4] was > 58.4 µM, the TGI [4] was > 100 µM and the GI50 [5] was 63.8 µM. The TGI [5] was > 100 µM, the GI50 [6] was > 100 µM and the TGI [6] was > 100 µM. The GI50 [7] was > 73.9 µM, the TGI [7] was > 100 µM and the GI50 [8] was 37.1 µM. The TGI [8] was > 100 µM, the GI50 [9] was 13.1 µM and the TGI [9] was > 100 µM. The GI50 [10] was 0.89 µM and the TGI [10] was > 100 µM.
`COc1cccc(C2CC(=O)Nc3cc4c(cc32)CCC4)c1OC` (stereo unspecified) was tested, and the GI50 [1] was 6.72 µM, the TGI [1] was > 84 µM and the GI50 [2] was 0.758 µM. The TGI [2] was 7.83 µM, the GI50 [3] was 4.26 µM and the TGI [3] was 16.8 µM. For the same molecule, the GI50 [4] was 5.98 µM, the TGI [4] was 36 µM and the GI50 [5] was 3.03 µM. The TGI [5] was 10.4 µM, the GI50 [6] was 4.12 µM and the TGI [6] was 17.3 µM. It also gave a GI50 [7] of 3.73 µM, a TGI [7] of 20 µM and a GI50 [8] of 3.11 µM. For the same molecule, the TGI [8] was > 46.2 µM, the GI50 [9] was 2.9 µM and the TGI [9] was 14.4 µM. For the same molecule, the GI50 [10] was 7.18 µM and the TGI [10] was 38.7 µM.
In the case of `CCOc1cccc(/C=N/NC(=O)Cc2ccc(Nc3ccnc(C(F)(F)F)c3)cc2)c1O`, the GI50 [1] is reported as 1.53 µM, the TGI [1] is reported as > 100 µM and the GI50 [2] is reported as 1.9 µM. For the same molecule, the TGI [2] was 9.93 µM, the GI50 [3] was 1.49 µM and the TGI [3] was > 100 µM. For the same molecule, the GI50 [4] was 2.13 µM, the TGI [4] was 18.7 µM and the GI50 [5] was 2.03 µM. The TGI [5] was 14.5 µM, the GI50 [6] was 11.4 µM and the TGI [6] was 45 µM. The GI50 [7] was 3.3 µM, the TGI [7] was > 100 µM and the GI50 [8] was 3.06 µM. The TGI [8] was 18 µM, the GI50 [9] was 1.64 µM and the TGI [9] was 14.7 µM. For the same molecule, the GI50 [10] was 0.986 µM and the TGI [10] was 20.7 µM.
In the case of `NCCNc1nc2ccccc2c2c(=O)c3cc(F)cc(Cl)c3sc12`, the GI50 [1] is reported as 1.63 µM, the TGI [1] is reported as 2.99 µM and the GI50 [2] is reported as 1.39 µM. For the same molecule, the TGI [2] was 3.06 µM, the GI50 [3] was 1.66 µM and the TGI [3] was 3.17 µM. The GI50 [4] was 1.83 µM, the TGI [4] was 3.35 µM and the GI50 [5] was 1.7 µM. The TGI [5] was 3.08 µM, the GI50 [6] was 1.82 µM and the TGI [6] was 3.6 µM. For the same molecule, the GI50 [8] was 1.54 µM, the TGI [8] was 3.08 µM and the GI50 [9] was 1.66 µM. The TGI [9] was 3.06 µM, the GI50 [10] was 1.22 µM and the TGI [10] was 2.49 µM.
In the case of `CC(=O)[O-].O=[N+]([O-])c1ccc([O-])c(C=NCCN=Cc2cc([N+](=O)[O-])ccc2[O-])c1.[Mn+3]`, the GI50 [1] is reported as > 100 µM, the TGI [1] is reported as > 100 µM and the GI50 [3] is reported as 75.8 µM. The TGI [3] was > 100 µM, the GI50 [4] was > 100 µM and the TGI [4] was > 100 µM. For the same molecule, the GI50 [5] was > 100 µM, the TGI [5] was > 100 µM and the GI50 [6] was > 100 µM. The TGI [6] was > 100 µM, the GI50 [7] was > 100 µM and the TGI [7] was > 100 µM. The GI50 [9] was > 100 µM, the TGI [9] was > 100 µM and the GI50 [10] was > 100 µM. For the same molecule, the TGI [10] was > 100 µM.
In the case of `C1=CC=C2NCCSCCNC3=CC=CC=CC3=NCCSCCN=C2C=C1`, the TGI [1] is reported as > 100 µM, the TGI [3] is reported as > 100 µM and the TGI [4] is reported as > 100 µM. For the same molecule, the TGI [6] was > 100 µM, the TGI [7] was > 100 µM and the TGI [8] was > 100 µM. The TGI [9] was > 100 µM and the TGI [10] was > 100 µM.
In the case of `COc1cc(/C=C2/C(=O)N(C(=O)c3ccccc3O)N=C2C)ccc1O`, the TGI [1] is reported as > 100 µM, the TGI [2] is reported as > 100 µM and the TGI [3] is reported as > 70.6 µM. The TGI [4] was > 100 µM, the TGI [6] was > 100 µM and the TGI [7] was > 86.5 µM. The TGI [8] was > 100 µM and the TGI [9] was 0.364 µM.
`N#CC1=C(N)NC(=S)C(C#N)C12Nc1ccccc1S2` (stereo unspecified) gave a GI50 [1] of 9.82 µM, a TGI [1] of 29.4 µM and a GI50 [2] of 60.8 µM. For the same molecule, the TGI [2] was > 100 µM, the GI50 [3] was 13.5 µM and the TGI [3] was 32.6 µM. For the same molecule, the GI50 [4] was 30.5 µM, the TGI [4] was 84 µM and the GI50 [6] was 29.3 µM. The TGI [6] was 58.1 µM, the GI50 [7] was 27.1 µM and the TGI [7] was 77.8 µM. It also gave a GI50 [8] of 19.1 µM, a TGI [8] of 42.3 µM and a GI50 [9] of 18 µM. It also gave a TGI [9] of 33.4 µM, a GI50 [10] of 17.6 µM and a TGI [10] of 38.5 µM.
In the case of `O=C1[C@H]2ON(c3ccccc3)C(c3cccc([N+](=O)[O-])c3)[C@H]2C(=O)N1c1ccc(Cc2ccc(N3C(=O)[C@@H]4ON(c5ccccc5)C(c5cccc([N+](=O)[O-])c5)[C@@H]4C3=O)cc2)cc1` (stereo partly specified), the TGI [1] is reported as > 100 µM, the TGI [3] is reported as > 100 µM and the TGI [4] is reported as > 100 µM. For the same molecule, the TGI [5] was > 100 µM, the TGI [6] was > 100 µM and the TGI [7] was > 100 µM. The TGI [8] was > 100 µM, the TGI [9] was > 100 µM and the TGI [10] was > 100 µM.
In the case of `CCOC(=O)/N=c1\ssc(Cl)c1Cl`, the GI50 [1] is reported as 1.95 µM, the TGI [1] is reported as 4.37 µM and the GI50 [2] is reported as 5.66 µM. The TGI [2] was > 100 µM, the GI50 [3] was 1.9 µM and the TGI [3] was 3.99 µM. For the same molecule, the GI50 [5] was 2.87 µM, the TGI [5] was 8.97 µM and the GI50 [6] was 12.1 µM. The TGI [6] was 60.4 µM, the GI50 [7] was 20.6 µM and the TGI [7] was 45.6 µM. The GI50 [8] was 0.599 µM, the TGI [8] was 14.7 µM and the GI50 [9] was 14 µM. For the same molecule, the TGI [9] was 29.6 µM, the GI50 [10] was 4.97 µM and the TGI [10] was > 100 µM.
With `CC(C)(C)OC(=O)n1c(Cl)c(C(=O)N=C=S)c2ccccc21` the GI50 [1] was 29.5 µM, the TGI [1] was > 100 µM and the GI50 [2] was 17.2 µM. The TGI [2] was 65.4 µM, the GI50 [3] was 29.2 µM and the TGI [3] was > 100 µM. It also gave a GI50 [5] of 23 µM, a TGI [5] of 55.1 µM and a GI50 [6] of 24.7 µM. For the same molecule, the TGI [6] was 75.8 µM, the GI50 [7] was > 100 µM and the TGI [7] was > 100 µM. For the same molecule, the GI50 [8] was 35.4 µM, the TGI [8] was > 100 µM and the GI50 [9] was 28.8 µM. For the same molecule, the TGI [9] was 79 µM, the GI50 [10] was 18.5 µM and the TGI [10] was 35.8 µM.
For `COc1ccc(C2NC(=S)NC3=C2COc2ccc(F)cc23)cc1OC` (stereo unspecified), the GI50 [1] was 13 µM, the TGI [1] was 39.2 µM and the GI50 [2] was 41.7 µM. The TGI [2] was > 100 µM, the GI50 [3] was 13.5 µM and the TGI [3] was 27.6 µM. It also gave a GI50 [5] of 28.3 µM, a TGI [5] of 67.4 µM and a GI50 [6] of 55.4 µM. For the same molecule, the TGI [6] was > 100 µM, the GI50 [7] was 71.2 µM and the TGI [7] was > 100 µM. The GI50 [8] was 24.5 µM, the TGI [8] was > 100 µM and the GI50 [9] was 14.8 µM. For the same molecule, the TGI [9] was 41.8 µM, the GI50 [10] was 39.2 µM and the TGI [10] was > 100 µM.
`CCCCOP1(=O)C=CC(Cl)=C(C)C1` (stereo unspecified) gave a TGI [1] of 36.3 µM, a TGI [2] of 54.5 µM and a TGI [4] of 47.5 µM. The TGI [5] was 36.3 µM, the TGI [6] was 50.8 µM and the TGI [8] was 42.7 µM. The TGI [9] was 54.4 µM and the TGI [10] was > 100 µM.
For `CC(C)(C)c1cc(C(=O)O)c(C(c2ccccc2)c2ccccc2C(=O)O)c(C(=O)O)c1` (stereo unspecified), the TGI [1] was 40 µM, the TGI [3] was > 100 µM and the TGI [4] was > 100 µM. The TGI [5] was > 100 µM, the TGI [6] was > 100 µM and the TGI [7] was 36.9 µM. For the same molecule, the TGI [8] was > 100 µM, the TGI [9] was > 100 µM and the TGI [10] was > 100 µM.
In the case of `O=C1OC(c2ccc(Cl)c3ccccc23)c2ccccc21` (stereo unspecified), the TGI [1] is reported as > 100 µM, the TGI [2] is reported as > 100 µM and the TGI [4] is reported as > 100 µM. The TGI [5] was > 100 µM, the TGI [6] was > 100 µM and the TGI [7] was > 100 µM. The TGI [9] was > 100 µM and the TGI [10] was > 100 µM.
